Consider 19 compounds from patent publication US10045968B2, “Bicyclic compound, production and use thereof” (TOBIRA THERAPEUTICS, INC., priority 2001, dated 2018).

T1 sequence (P51681 whole entry): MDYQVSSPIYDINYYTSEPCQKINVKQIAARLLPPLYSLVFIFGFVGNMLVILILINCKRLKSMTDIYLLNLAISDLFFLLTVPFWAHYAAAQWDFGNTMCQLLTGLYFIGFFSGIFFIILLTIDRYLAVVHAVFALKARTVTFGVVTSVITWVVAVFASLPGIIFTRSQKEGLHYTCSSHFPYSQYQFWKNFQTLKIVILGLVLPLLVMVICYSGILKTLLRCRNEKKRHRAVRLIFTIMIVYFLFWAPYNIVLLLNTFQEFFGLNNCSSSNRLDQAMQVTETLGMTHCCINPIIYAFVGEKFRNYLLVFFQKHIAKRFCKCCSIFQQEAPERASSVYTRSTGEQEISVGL

One test concerns the target T1, human CCR5 (Homo sapiens, UniProt P51681).
T1 construct: expressed in transfected cells; host or cells: CHO-K1 cells, stably transfected with pCKR5 (pcDNA3.1 backbone), Geneticin-selected
As to the kind of experiment: Inhibition of [125I]-RANTES binding to CCR5/CHO cells (CCR5 antagonist activity). Particulars: 40 min, test compound 1 μM, 100 pM [125I]-RANTES as ligand, room temperature, read-out: Binding Inhibitory Ratio (%). The method, then:
(1) Cloning of Human CCR5 Chemokine Receptor Cloning of CCR5 gene was conducted from human spleen cDNA by PCR method. Using cDNA (0.5 ng) from spleen (Toyobo, QUICK-Clone cDNA) as a genetic template, primer sets prepared by referring to CCR5 gene nucleotide sequence described by Samson et al. (Biochemistry 35 (11), 3362-3367 (1996), i.e., (2) Preparation of Expression Plasmid of Human CCR5 […] The DNA fragments and an expression plasmid for animal cells pcDN A3.1 (Funakoshi), which was previously digested by XbaI and BamHI, were mixed and ligated by DNA Ligation Kit Ver. 2 (Takara Shuzo). Transformation of E. coli JM109 competent cells (Takara Shuzo) gave plasmid pCKR5. (3) Introduction of the Human CCR5 Expression Plasmid into CHO-K1 Cells and Expression Thereof […] The cells were washed with PBS (Lifetech Oriental), centrifuged (1000 rpm, 5 minutes), and resuspended in PBS. The DNA was introduced into the cells using Gene Pulser (BioRad) according to the following conditions. […] The cells were diluted to a concentration of 10^4 cells/ml, and inoculated in 96 well plate (Becton Dickinson), to obtain Geneticin-resistant cells. The Geneticin-resistant cells ware grown in 96 well plate (Becton Dickinson), and CCR5 expressing cells were selected from the resistant cells. Namely, in an assay buffer, (Ham F12 medium containing 0.5% BSA, and 20 mM HEPES (Wako Pure Chemical Ind., pH 7.2)), containing 200 pM [^125I]-RANTES (Amersham) as a ligand, the cells were subjected to binding reaction at room temperature for 40 minutes. The well plate containing the cells was washed with ice-cooled PBS, added with 1M NaOH in an amount of 50 μl/well and stirred. The cells to which the ligand bound specifically, i.e., CCR5/CHO cells, were selected by measurement of radioactivity by γ-counter. (4) Evaluation of Compounds Based on CCR5 Antagonist Activity The CCR5/CHO cells were inoculated in 96 well microplate at a concentration of 5×10^4 cells/well, and grown for 24 hours. After removal of the medium by aspiration, to each well was added an assay buffer containing a test compound (1 μM), and (^125I)/RANTES (Amersham) used as a ligand at a concentration of 100 pM. The mixture was subjected to the reaction at room temperature for 40 minutes. After removal of the assay buffer by aspiration, each well was washed with cooled PBS twice. Then, 200 μl MicroScint 20 (Packerd) was added to each well, and the radioactivity of each well was measured by TopCount (Packard). According to the method above, inhibitory ratios to CCR5 binding of the test compounds were determined.
With `CCCCOCCOc1ccc(-c2ccc3c(c2)C=C(C(=O)Nc2ccc([S+]([O-])Cc4nncn4CCC)cc2)CCCN3CC(C)C)cc1` (single isomer, unassigned; (+)) [Compound 48, (+)-8-[4-(2-butoxyethoxy)phenyl]-1-isobutyl-N-[4-[[(4-propyl-4H-1,2,4-triazol-3-yl)methyl]sulfinyl]phenyl]-1,2,3,4-tetrahydro-1-benzazocine-5-carboxamide], the inhibition at 1 µM came to 97%.

With `CCCCOCCOc1ccc(-c2ccc3c(c2)C=C(C(=O)Nc2ccc([S+]([O-])Cc4cncn4CCC)cc2)CCCN3CCC)cc1` (single isomer, unassigned; (-)) [Compound 9, (−)-8-[4-(2-butoxyethoxy)phenyl]-1-propyl-N-[4-[[[1-propylimidazol-5-yl]methyl]sulfinyl]phenyl]-1,2,3,4-tetrahydro-1-benzoazocine-5-carboxamide], the inhibition at 1 µM was found to be 100%.

For `CCCCOCCOc1ccc(-c2ccc3c(c2)C=C(C(=O)Nc2ccc([S+]([O-])Cc4nccn4CCC)cc2)CCCN3CCC)cc1` (single isomer, unassigned; (-)) [Compound 22, (−)-8-[4-(2-butoxyethoxy)phenyl]-1-propyl-N-[4-[[[1-propylimidazol-2-yl]methyl]sulfinyl]phenyl]-1,2,3,4-tetrahydro-1-benzoazocine-5-carboxamide], the inhibition at 1 µM stood at 98%.

With `CCCCOCCOc1ccc(-c2ccc3c(c2)C=C(C(=O)Nc2ccc([S+]([O-])Cc4cncn4CCC)cc2)CCCCN3CC(C)C)cc1` (single isomer, unassigned; (-)) [Compound 26, (−)-9-[4-(2-butoxyethoxy)phenyl]-1-isobutyl-N-[4-[[[1-propylimidazol-5-yl]methyl]sulfinyl]phenyl]-2,3,4,5-tetrahydro-1H-1-benzoazonin-6-carboxamide], the inhibition at 1 µM was 100%.

Turning to `CCCCOCCOc1ccc(-c2ccc3c(c2)C=C(C(=O)Nc2ccc([S+]([O-])Cc4cncn4CCC)cc2)CCCN3Cc2cnn(C)c2)cc1` (single isomer, unassigned; (-)) [Compound 34, (−)-8-[4-(2-butoxyethoxy)phenyl]-1-((1-methylpyrazol-4-yl)methyl)-N-[4-[[[1-propylimidazol-5-yl]methyl]sulfinyl]phenyl]-1,2,3,4-tetrahydro-1-benzoazocine-5-carboxamide], the inhibition at 1 µM stood at 97%.

As for `CCCCOCCOc1ccc(-c2ccc3c(c2)C=C(C(=O)Nc2ccc(CN(C)C4CCOCC4)cc2)CCCO3)cc1` [Compound 1, 8-[4-(2-butoxyethoxy)phenyl]-N-[4-[[N-methyl-N-(tetrahydropyran-4-yl)amino]methyl]phenyl]-3,4-dihydro-2H-1-benzoxocin-5-carboxamide], the inhibition at 1 µM was found to be 94%.

Consider `CCCCOCCOc1ccc(-c2ccc3c(c2)C=C(C(=O)Nc2ccc(CN(C)C4CCOCC4)cc2)CCCN3CCC)cc1` [Compound 2, 8-[4-(2-butoxyethoxy)phenyl]-1-propyl-N-[4-[[N-methyl-N-(tetrahydropyran-4-yl)amino]methyl]phenyl]-1,2,3,4-tetrahydro-1-benzazocine-5-carboxamide], for which the inhibition at 1 µM amounted to 96%.

Take `CCCCOCCOc1ccc(-c2ccc3c(c2)C=C(C(=O)Nc2ccc(SCc4cncn4CCC)cc2)CCCN3CCC)cc1` [Compound 3, 8-[4-(2-butoxyethoxy)phenyl]-1-propyl-N-[4-[[[1-propylimidazol-5-yl]methyl]sulfanyl]phenyl]-1,2,3,4-tetrahydro-1-benzazocine-5-carboxamide]: the inhibition at 1 µM was found to be 91%.

As for `CCCCOCCOc1ccc(-c2ccc3c(c2)C=C(C(=O)Nc2ccc(S(=O)(=O)Cc4cncn4CCC)cc2)CCCN3CCC)cc1` [Compound 5, 8-[4-(2-butoxyethoxy)phenyl]-1-propyl-N-[4-[[[1-propylimidazol-5-yl]methyl]sulfonyl]phenyl]-1,2,3,4-tetrahydro-1-benzazocine-5-carboxamide], the inhibition at 1 µM is 86%.

For the compound `CCCCOCCOc1ccc(-c2ccc3c(c2)C=C(C(=O)Nc2ccc([S+]([O-])Cc4cncn4CCC)cc2)CCCN3CC(C)C)cc1` (stereo not shown) [Compound 7, 8-[4-(2-butoxyethoxy)phenyl]-1-isobutyl-N-[4-[[[1-propyl-1H-imidazol-5-yl]methyl]sulfinyl]phenyl]-1,2,3,4-tetrahydro-1-benzazocine-5-carboxamide], the inhibition at 1 µM was 100%.

The same test, now with this note: test compound 1 μM, 100 pM [125I]-RANTES as ligand, room temperature, 40 minutes.
Consider `CCCCOCCOc1ccc(-c2ccc3c(c2)C=C(C(=O)Nc2ccc([S+]([O-])Cc4nncn4CCC)cc2)CCCN3CCC)cc1` (single isomer, unassigned; (+)) [Compound 53, (+)-8-[4-(2-butoxyethoxy)phenyl]-1-propyl-N-[4-[[(4-propyl-4H-1,2,4-triazol-3-yl)methyl]sulfinyl]phenyl]-1,2,3,4-tetrahydro-1-benzazocin-5-carboxamide], for which the “Binding Inhibitory Ratio (%)” value is listed as 100%.

On to `CCCCOCCOc1ccc(-c2ccc3c(c2)C=C(C(=O)Nc2ccc([S+]([O-])Cc4cncn4CCC)cc2)CCCN3CC(C)C)cc1.CS(=O)(=O)O` (single isomer, unassigned; (-)) [Compound 14, (−)-8-[4-(2-butoxyethoxy)phenyl]-1-isobutyl-N-[4-[[[1-propyl-1H-imidazol-5-yl]methyl]sulfinyl]phenyl]-1,2,3,4-tetrahydro-1-benzoazocine-5-carboxamide methanesulfonate], for which the “Binding Inhibitory Ratio (%)” value amounted to 98%.

`C=C(C)CN1CCCC(C(=O)Nc2ccc([S+]([O-])Cc3cncn3CCC)cc2)=Cc2cc(-c3ccc(OCCOCCCC)cc3)ccc21` (single isomer, unassigned; (-)) [Compound 23, (−)-8-[4-(2-butoxyethoxy)phenyl]-1-(2-methyl-2-propen-1-yl)-N-[4-[[[1-propylimidazol-5-yl]methyl]sulfinyl]phenyl]-1,2,3,4-tetrahydro-1-benzoazocine-5-carboxylic]: the “Binding Inhibitory Ratio (%)” value is 97%.

For `CCCCOCCOc1ccc(-c2ccc3c(c2)C=C(C(=O)Nc2ccc([S+]([O-])Cc4nncn4CCC)cc2)CCCN3CC(C)C)cc1` (single isomer, unassigned; (-)) [Compound 49, (−)-8-[4-(2-butoxyethoxy)phenyl]-1-isobutyl-N-[4-[[(4-propyl-4H-1,2,4-triazol-3-yl)methyl]sulfinyl]phenyl]-1,2,3,4-tetrahydro-1-benzazocine-5-carboxamide], the “Binding Inhibitory Ratio (%)” value is on record as 91%.

For the compound `CCCCOCCOc1ccc(-c2ccc3c(c2)C=C(C(=O)Nc2ccc([S+]([O-])Cc4nncn4CCC)cc2)CCCN3CCC)cc1` (single isomer, unassigned; (-)) [Compound 52, (−)-8-[4-(2-butoxyethoxy)phenyl]-1-propyl-N-[4-[[[4-propyl-4H-1,2,4-triazol-3-yl]methyl]sulfinyl]phenyl]-1,2,3,4-tetrahydro-1-benzazocine-5-carboxamide], the “Binding Inhibitory Ratio (%)” value was found to be 96%.

Turning to `CCCCOCCOc1ccc(-c2ccc3c(c2)C=C(C(=O)Nc2ccc([S+]([O-])Cc4cncn4CCC)cc2)CCCN3CCC)cc1` (stereo not shown) [Compound 4, 8-[4-(2-butoxyethoxy)phenyl]-1-propyl-N-[4-[[[1-propylimidazol-5-yl]methyl]sulfinyl]phenyl]-1,2,3,4-tetrahydro-1-benzazocine-5-carboxamide], the “Binding Inhibitory Ratio (%)” value is given as 100%.

Regarding `CCCCOCCOc1ccc(-c2ccc3c(c2)C=C(C(=O)Nc2ccc(SCc4cncn4CCC)cc2)CCCN3CC(C)C)cc1` [Compound 6], the “Binding Inhibitory Ratio (%)” value was 98%.

Turning to `CCCCOCCOc1ccc(-c2ccc3c(c2)C=C(C(=O)Nc2ccc(SCc4cncn4CCC)cc2)CCCN3CC(C)C)cc1` [Compound 8, 8-[4-(2-butoxyethoxy)phenyl]-I-isobutyl-N-[4-[[[1-propyl-1H-imidazol-5-yl]methyl]sulfanyl]phenyl]-1,2,3,4-tetrahydro-1-benzazocine-5-carboxamide], the “Binding Inhibitory Ratio (%)” value turned out to be 99%.

On to `CCCCOCCOc1ccc(-c2ccc3c(c2)C=C(C(=O)Nc2ccc([S+]([O-])Cc4cncn4CCC)cc2)CCCN3CC(C)CO)cc1` (stereo not shown) [Compound 32, 8-[4-(2-butoxyethoxy)phenyl]-1-(2-methyl-3-hydroxy)propyl-N-[4-[[[1-propylimidazol-5-yl]methyl]sulfinyl]phenyl]-1,2,3,4-tetrahydro-1-benzoazocine-5-carboxamide], for which the “Binding Inhibitory Ratio (%)” value is listed as 100%.
